Assay results from PMC11532403 (Signal Transduction and Targeted Therapy, 2024).
Several values for one entry are separate records, joined by “and”; a condition that tells them apart may be missing. Identical values can stand only once. Like-named read-outs stand apart in the source and are kept apart here.

Key:
TT cells (RET^C634W) = experiment: Proliferation assay (CellTiter-Glo); type: cell-based; conditions: Homo sapiens, 72 hours, read-out: Cellular Viability IC50
Description: (§1) The cell lines HEK293T, Baf3, TT cell and NIH-3T3 were obtained from the Cell Resource Center, Peking Union Medical College (PCRC). […] All stably transformed BaF3 cells were cultured in RPMI 1640 without IL‐3. […] Cells were cultured at 37 °C under 5 % CO2 and high humidity conditions. […] Cell viability was assessed by luminescence using CellTiter-Glo 2.0 assay (Promega). IC50 curve fitting was performed using GraphPad Prism 9.0.

[1] = system: patients with advanced RET-altered solid tumors; experiment: Phase 1 trial: treatment-related adverse events (CTCAE v5.0), DLT, MTD;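 also: Open-label single-arm first-in-human phase 1 study at six Chinese sites with 3 + 3 dose escalation and expansion, adverse events given descriptively as patient counts and percentages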
Description: This single-arm, open-label, first-in-human, dose-escalation and dose-expansion phase 1 study was conducted across six sites in China (NCT05278364). […] Dose escalation followed a 3 + 3 design, incorporating accelerated titration[41] for the first two dose levels and a modified Fibonacci dose escalation.[42]
The primary endpoints for this study were to determine the MTD, DLT, RP2D and safety. […] All responses required a confirmation of radiologic assessment at least 4 weeks after the first assessment.
The Pharmacokinetic Analysis Set (PKAS) included all patients with at least one evaluable PK sample (n = 43). Descriptive statistics were used for baseline data, summarizing continuous data with mean, standard deviation, median, minimum, and maximum, and categorical data with frequency and percentage. Safety analysis was descriptive, including adverse events summarized by frequency and severity. PK parameter analysis was performed using Phoenix WinNonlin version 8.0 (Certara L.P. [Pharsight], St. Louis, MO, USA), and results were summarized using geometric mean and coefficient of variation. CIs for response rates were calculated using the Clopper-Pearson method. […] All analysis were performed with SAS statistical software, version 9.2 (SAS Institute).

[2] = Excretion in rats (feces, urine, bile); type: in vivo
Description: The total fecal and urinary excretion of prodrug and metabolite was 62.8% of the administered dose. The amount of prodrug and metabolite in bile from 0 to 48 h in bile duct-intubated rats was 5.22% of the administered dose, of which 0.656% was prodrug and 4.57% was metabolite.

NIH-3T3 cells = experiment: Proliferation assay (CellTiter-Glo); type: cell-based, murine; conditions: Mus musculus, NIH3T3; NIH-3T3 (RET-negative); read-out: Cellular Viability IC50
Description: as §1

[3] = Tissue distribution in rats; type: in vivo; conditions: both sexes, rat, po, 20 mg/kg gavage
Description: The exposures in body fat, small intestine, heart, uterus, skeletal muscle, testis and brain were lower than in plasma and the rest were higher than in plasma. The highest exposures were found in the liver, stomach and lung, which were 358, 202 and 173% of plasma, respectively. […] There was no significant sex difference in the exposure of SY-5007 in rat tissues.

[4] = Acute toxicity, single oral gavage; conditions: both sexes, beagle, dog, in vivo, read-out: MTD, single dose

Structure (SMILES): COc1ccc(CN2C3CC2CN(c2ccc(-c4cc(N5CC(C)(O)C5)cn5ncc(C#N)c45)cn2)C3)cn1 [SY-5007, 6-(3-hydroxy-3-methylazetidin-1-yl)-4-(6-(6-((6-methoxypyridin-3-yl)methyl)-3,6-diazabicyclo[3.1.1]heptan-3-yl)pyridin-3-yl)pyrazolo[1,5-a]pyridine-3-carbonitrile]
- IC50 (TT cells (RET^C634W)): 9.11 nM
- Dose-limiting toxicity (DLT) ([1]; 20 mg QD to 200 mg BID): No dose-limiting toxicity (DLT) was observed
- Albuminuria ([1]; All Grade, Total (n = 122)): 45 (36.9) n (%)
- Anemia ([1]; All Grade, Total (n = 122)): 27 (22.1) n (%)
- Any TRAE ([1]; All Grade, Total (n = 122)): 96.7 n (%) and 118 (96.7) n (%)
- Conjugated Hyperbilirubinemia ([1]; All Grade, Total (n = 122)): 23 (18.9) n (%)
- Diarrhea ([1]; All Grade, Total (n = 122)): 54.1 n (%) and 66 (54.1) n (%)
- Dry mouth ([1]; All Grade, Total (n = 122)): 40 (32.8) n (%)
- Facial edema ([1]; All Grade, Total (n = 122)): 35 (28.7) n (%)
- Hyperbilirubinemia ([1]; All Grade, Total (n = 122)): 51 (41.8) n (%)
- Hyperglycemia ([1]; All Grade, Total (n = 122)): 22 (18.0) n (%)
- Hyperphosphatemia ([1]; All Grade, Total (n = 122)): 42 (34.4) n (%)
- Hypertension ([1]; All Grade, Total (n = 122)): 50 (41.0) n (%)
- Hypertriglyceridemia ([1]; All Grade, Total (n = 122)): 55 (45.1) n (%)
- Hyperuricemia ([1]; All Grade, Total (n = 122)): 41 (33.6) n (%)
- Hypoalbuminemia ([1]; All Grade, Total (n = 122)): 33 (27.0) n (%)
- Hypocalcemia ([1]; All Grade, Total (n = 122)): 34 (27.9) n (%)
- Hyponatremia ([1]; All Grade, Total (n = 122)): 23 (18.9) n (%)
- Hypopotassemia ([1]; All Grade, Total (n = 122)): 19 (15.6) n (%)
- Hypothyroidism ([1]; All Grade, Total (n = 122)): 38 (31.1) n (%)
- Increased alanine aminotransferase ([1]; All Grade, Total (n = 122)): 56.6 n (%) and 69 (56.6) n (%)
- Increased aspartate aminotransferase ([1]; All Grade, Total (n = 122)): 69.7 n (%) and 85 (69.7) n (%)
- Increased blood alkaline phosphatase ([1]; All Grade, Total (n = 122)): 43 (35.2) n (%)
- Increased blood creatine ([1]; All Grade, Total (n = 122)): 45 (36.9) n (%)
- Increased blood creatine phosphokinase ([1]; All Grade, Total (n = 122)): 40 (32.8) n (%)
- Increased blood creatine phosphokinase MB ([1]; All Grade, Total (n = 122)): 54 (44.3) n (%)
- Increased blood lactate dehydrogenase ([1]; All Grade, Total (n = 122)): 51 (41.8) n (%)
- Increased γ-Glutamyl transferase ([1]; All Grade, Total (n = 122)): 28 (23.0) n (%)
- Leukopenia ([1]; All Grade, Total (n = 122)): 56 (45.9) n (%)
- Lymphopenia ([1]; All Grade, Total (n = 122)): 30 (24.6) n (%)
- Neutropenia ([1]; All Grade, Total (n = 122)): 54.1 n (%) and 66 (54.1) n (%)
- Palmoplantar erythema syndrome ([1]; All Grade, Total (n = 122)): 23 (18.9) n (%)
- Peripheral edema ([1]; All Grade, Total (n = 122)): 23 (18.9) n (%)
- Thrombocytopenia ([1]; All Grade, Total (n = 122)): 50 (41.0) n (%)
- Weakness ([1]; All Grade, Total (n = 122)): 20 (16.4) n (%)
- Weight loss ([1]; All Grade, Total (n = 122)): 22 (18.0) n (%)
- Xeromycteria ([1]; All Grade, Total (n = 122)): 21 (17.2) n (%)
- Conjugated Hyperbilirubinemia ([1]; Grade ⩾ 3, dose group): 0 (0.0) n (%)
- Dry mouth ([1]; Grade ⩾ 3, dose group): 0 (0.0) n (%)
- Facial edema ([1]; Grade ⩾ 3, dose group): 0 (0.0) n (%)
- Hyperglycemia ([1]; Grade ⩾ 3, dose group): 0 (0.0) n (%)
- Hyperphosphatemia ([1]; Grade ⩾ 3, dose group): 0 (0.0) n (%)
- Hyperuricemia ([1]; Grade ⩾ 3, dose group): 0 (0.0) n (%)
- Hypoalbuminemia ([1]; Grade ⩾ 3, dose group): 0 (0.0) n (%)
- Hypothyroidism ([1]; Grade ⩾ 3, dose group): 0 (0.0) n (%)
- Increased blood alkaline phosphatase ([1]; Grade ⩾ 3, dose group): 0 (0.0) n (%)
- Increased blood creatine ([1]; Grade ⩾ 3, dose group): 0 (0.0) n (%)
- Increased blood lactate dehydrogenase ([1]; Grade ⩾ 3, dose group): 0 (0.0) n (%)
- Peripheral edema ([1]; Grade ⩾ 3, dose group): 0 (0.0) n (%)
- Xeromycteria ([1]; Grade ⩾ 3, dose group): 0 (0.0) n (%)
- Dose discontinuation due to TRAE ([1]; n = 122): 2 (1.6%) n (%)
- Dose interruption due to diarrhea ([1]; n = 122): 10.7%
- Dose interruption due to hypertension ([1]; n = 122): 12.3%
- Dose reduction due to hypertension ([1]; n = 122): 5.7%
- TRAE-induced dose interruption ([1]; n = 122): 56 (45.9%) n (%)
- TRAE-induced dose reduction ([1]; n = 122): 29 (23.8%) n (%)
- Treatment-related deaths ([1]; n = 122): no treatment-related deaths
- Treatment-related serious adverse events (TRSAEs) ([1]; n = 122): 13 (10.7%) n (%)
- Maximum tolerated dose (MTD) ([1]; up to 200 mg BID): not reached
- Fecal excretion, prodrug (parent) ([2]; 20 mg/kg gavage): 55.4%
- Urinary excretion, prodrug (parent) ([2]; 20 mg/kg gavage): 0.801%
- Bile excretion, prodrug (parent) ([2]; bile duct-intubated rats): 0.656%
- IC50 (NIH-3T3 cells): > 5000 nM
- Kp ([3]; brain, read-out: Brain exposure (AUC0~24h)): 0.00195
- Kp ([3]; liver, read-out: Liver exposure (AUC0~24h)): 3.58
- Kp ([3]; lung, read-out: Lung exposure (AUC0~24h)): 1.73
- Kp ([3]; stomach, read-out: Stomach exposure (AUC0~24h)): 2.02
- MTD [4]: 200 mg/kg
